Values after ≈ are worked out from the molar mass of the structure shown.
How the values were obtained:
[1] = target: human α2β3γ2 receptor (α2-GABAA receptor) (Homo sapiens (Human), UniProt P18507+P47869); experiment: Radioligand (3H-flunitrazepam) competition binding assay, BZD site; α2 vs α5 binding selectivity; conditions: ratio of Ki at α2β3γ2 to Ki at α5β3γ2
Description: α, β and γ subunits are essential for the formation of a complete functional GABAA receptor. In this example, HEK293 cell strains stably expressing human α5-GABAA receptor (comprising α5β3γ2 subunit) and α2-GABAA receptor (comprising α2β3γ2 subunit) were constructed and screened, respectively, by liposome transfection method (Felgner, P. L., et al., Proceedings of the National Academy of Sciences, 1987, 84:7413-7417). The specific subunit protein sequences are as follows: α5 subunit (protein sequence can be found in GenBank accession number: NM_000810.3); α2 subunit (protein sequence can be found in GenBank accession number: NM_000807.4); β3 subunit (protein sequence can be found in GenBank accession number: NM_000814.5); γ2 subunit (protein sequence can be found in GenBank accession number: NM_000816.3).
The above cell lines were subcultured. Amplification of α5β3γ2-HEK293 and α2β3γ2-HEK293 cells was used to test the affinity of the compounds to benzodiazepine site (BZD) of the GABAA receptor. During the passage of α5β3γ2-HEK293 cells, some of the suspended cells were spread on a glass slide pretreated with Poly-D-Lysine for electrophysiological testing.
Flunitrazepam is a non-specific reagent that binds to the BZD site efficiently. The affinity of the compounds to the BZD sites of the human α5β3γ2 and α2β3γ2 receptors can be determined by competing the compound with ^3H-flunitrazepam (isotope ^3H-labeled flunitrazepam) for binding to these two receptors.
Membrane preparation: HEK293 cells stably expressing human α5β3γ2 receptor or α2β3γ2 receptor were collected, suspended in 50 mM Tris-HCl buffer (pH=7.4), homogenized on ice by a homogenizer for 20 seconds 10 times, and centrifuged at 4° C., 1000 g for 10 min. The supernatant was collected, and the above steps were repeated. The supernatant was centrifuged (33800 g; centrifuge purchased from Thermo, rotor model: A27-8×50) at 4° C. for 60 min, and the precipitate was resuspended in Tris buffer (50 mM Tris-HCl, 10 mM MgCl2, 0.5 mM EDTA, 10% glycerol). The precipitate was the cell membrane. Protein content was determined by BCA (Bicinchoninic Acid) method (BCA kit from Pierce (Annoron)). The cell membrane was prepared into 1 ml aliquot and stored at −80° C.
Radioligand competition binding assay: the assay was carried out in a 200 μL system (96-well plate from Agilent) with 100 μL of cell membrane. The concentration of ^3H-flunitazepam (from PerkinElmer, lot: NET567250 UC) was 1 nM and the concentration of test compound was in the range 1×10^−5-10^−6 M. Flumazenil (from Tocris; lot: 1318) was used as a control. 1 μL of 2 mM flumazenil (final concentration 10 μM) was added to the Low signal control well (Low control, LC) and 1 μL of DMSO (from Sigma aldrich, lot: 472301) was added to the High signal control well (High control, HC). The final target membrane protein concentration was 5 μg/well. All test compound sample stocks were 10 mM DMSO solutions. The working concentration of the samples is to dilute all samples with DMSO to 0.2 mM, and then perform 4-fold continuous gradient dilution for a total of 8 concentration gradients. The 96-well plate was sealed with a plate sealing membrane and then incubated on a shaker at room temperature for 1 hour. Meanwhile, GF/C filter plate was soaked with a plate soaking buffer (0.3% PEI, polyethyleneimine, purchased from Sigma aldrich, model: P314, stored at 4° C.) for at least 0.5 hours. After completion of binding incubation, the cells were collected with a cell collector onto the GF/C filter plate and washed four times with a plate washing buffer (50 mM Tris-HCl, pH 7.4, stored at 4° C.). […]

[2] = Thermodynamic solubility in simulated intestinal fluid (FaSSIF); assay type: physicochemical; conditions: 37° C., 1000 rpm
Experimental: 50 mM of phosphate buffer, pH=7.4:0.39 g of NaH2PO4·2H2O, 1.4025 g of Na2HPO4 were weighed, placed into an Erlenmeyer flask, dissolved with the addition of 240 ml of water, homogenously mixed, adjusted to pH 7.4 with 10 M NaOH solution, transferred into a 250 ml volumetric flask and diluted with water to the scale.
Simulated intestinal fluid FaSSIF: 54.76 mg of FaSSIF-V2 (Biorelevant, batch. V2FAS-0619-A, lot. V2FAS01) was weighed, and added to 15 ml of buffer, and after dissolution, the solution was made up to 30 ml and left to stand at room temperature for 1 hour for use.
Waters e2695 HPLC high performance liquid chromatography, Mettler XSE105 analytical balance.
Stock solution containing 10 mM of each test compound was formulated using DMSO, diluted into […] standard curve solution using diluent (ACN:PB buffer with a volume ratio of 50:50), and tested by HPLC to obtain a standard curve of concentration vs peak area of each test compound.
Thermodynamic solubility in simulated intestinal fluid (TS in FaSSIF). About 0.3 mg of each sample (test compound) was weighed, added into 1.5 mL of FaSSIF solution, two samples in parallel, shaken at 1000 rpm and 37° C. for 4 hours, and filtered, 1 mL of primary filtrate was discarded, then 400 μL of subsequent filtrate was taken, and tested by using a high performance liquid chromatograph (UV).

[3] = Stability in simulated gastric fluid (SGF); assay type: physicochemical; conditions: 37° C., 1000 rpm
Experimental: Simulated gastric fluid (SGF), Manufacturer: Dongguan Chuangfeng Automation Technology Co., Ltd.; Product model: CF-006.
Oscillating constant temperature metal bath, Model: Thermo; Manufacturer: Digital Skaking Drybath.
Temperature: 37° C.; rotating speed: 1000 rpm; sampling time: 0, 4 hours.
Chromatographic column: Welch Xtimate C18 3.0×100 mm, 5 μm. Mobile phase: A: 0.04% trifluoroacetic acid (TFA)/H2O (v/v), B: acetonitrile (ACN). Gradient elution was performed according to the following table, flow rate: 1.0 mL/min; injection volume: 5 μL; column temperature: 35° C.; wavelength: 254 nm.
• (a) preparation of 0.04% TFA/H2O: 400 μL of TFA was measured, placed into 1 L of H2O, and homogenously mixed; • (b) Sample stock solution: about 3 mg of test sample was weighed, and prepared into a stock solution of 10 mmol/L using DMSO; • (c) 50 μL of the sample stock solution was taken, placed into a 5 mL volumetric flask, made up to the scale with the addition of SGF, and homogenously mixed. 400 μL of the solution was taken, four samples in parallel, and shaken at 1000 rpm and 37° C.; • (d) every two samples were taken after 0 and 4 hours respectively, 400 μL of acetonitrile was added, and homogenously mixed, followed by liquid phase injection, and calculation of the change % of the main peak area in the solution after 4 hours relative to 0 hour, two average value reports being taken at each time point.

[4] = simulated intestinal fluid (FaSSIF), thermodynamic from solid

Row | Selectivity α2 ki/α5 ki [1] [folds] | solubility thermodynamic at 4 h [2, 4] [µg/mL] | Residual content in simulated gastric juice after 4 hours (compared with 0 hour content) [3] | solubility thermodynamic at 4 h ([2]; simulated intestinal fluid FaSSIF, pH 7.4, thermodynamic from solid) [µg/mL] | SMILES
1 | 63.3 | 19.4 (≈ 44.1 µM) | – | – | Cc1onc(-c2ccc(F)cc2)c1COc1ccc(N2CCN3CCNC(=O)C3C2)nn1 (centres unmarked) [Compound 10, 8-(6-((3-(4-fluorophenyl)-5-methylisoxazol-4-yl)methoxy)pyridazin-3-yl) hexahydro-2H-pyrazino[1,2-a]pyrazin-1 (6H)-one]
2 | 93.8 | 15.2 (≈ 37.3 µM) | 94% (4 hours) | – | Cc1onc(-c2ccc(F)cc2)c1COc1cnc(-c2nnc3n2CCOC3)cn1 [Compound 19, 3-(5-((3-(4-fluorophenyl)-5-methylisoxazol-4-yl)methoxy)pyrazin-2-yl)-5,6-dihydro-8H-[1,2,4]triazolo[3,4-c][1,4]oxazine]
3 | 90.2 | 39.6 (≈ 101 µM) | 80% (4 hours) | – | Cc1onc(-c2ccc(F)cc2)c1COc1cnc(-c2nnc3n2CCC3)cn1 [Compound 23, 4-(((5-(6,7-dihydro-5H-pyrrolo[2,1-c][1,2,4]triazol-3-yl)pyrazin-2-yl)oxy)methyl)-3-(4-fluorophenyl)-5-methylisoxazole]
4 | 39.2 | – | – | 18.3 (≈ 43.3 µM) | Cc1onc(-c2ccc(F)cc2)c1COc1cnc(-c2nnc3n2CCCOC3)cn1 [Compound 24, 3-(5-((3-(4-fluorophenyl)-5-methylisoxazol-4-yl)methoxy)pyrazin-2-yl)-6,7-dihydro-5H,9H-[1,2,4]triazolo[3,4-c][1,4]oxazepane]
5 | 75.8 | – | 35% (4 hours) | – | Cc1onc(-c2ccc(F)cc2)c1COc1ccc(-c2cc3n(c(=O)n2)CCN3C)cn1 [Compound 41, 7-(6-((3-(4-fluorophenyl)-5-methylisoxazol-4-yl)methoxy)pyridin-3-yl)-1-methyl-2,3-dihydroimidazo[1,2-c]pyrimidin-5(1H)-one]
6 | 122.2 | – | 75% (4 hours) | – | Cc1onc(-c2ccc(F)cc2)c1COc1ccc(-c2cc3n(c(=O)n2)C[C@]24CO[C@H](CN32)C4)cn1 [Compound 38]
7 | 23.1 | 33.1 (≈ 81.2 µM) | 65% (4 hours) | – | Cc1onc(-c2ccc(F)cc2)c1COc1ccc(-c2nnc3n2CCOC3)cn1 [Compound 17, 3-(6-((3-(4-fluorophenyl)-5-methylisoxazol-4-yl)methoxy)pyridin-3-yl)-5,6-dihydro-8H-[1,2,4]triazolo[3,4-c][1,4]oxazine]
8 | 48.6 | 60.2 (≈ 143 µM) | – | – | Cc1onc(-c2ccc(F)cc2)c1COc1ccc(N2CCn3ccnc3C2=O)nn1 [Compound 37, 7-(6-((3-(4-fluorophenyl)-5-methylisoxazol-4-yl)methoxy)pyridazin-3-yl)-6,7-dihydroimidazo[1,2-a]pyrazin-8(5H)-one]
9 | 86.7 | 39.5 (≈ 93.5 µM) | 91% (4 hours) | – | Cc1onc(-c2ccc(F)cc2)c1COc1cnc(-c2nnc3n2CCOCC3)cn1 [Compound 33, 3-(5-((3-(4-fluorophenyl)-5-methylisoxazol-4-yl)methoxy)pyrazin-2-yl)-5,6,8,9-tetrahydro-[1,2,4]triazolo[4,3-d][1,4]oxazepane]
10 | 41.4 | – | 51% (4 hours) | – | Cc1onc(-c2ccc(F)cc2)c1COc1ccc(-c2nnc3n2CCOC3)nn1 [Compound 18, 3-(6-((3-(4-fluorophenyl)-5-methylisoxazol-4-yl)methoxy)pyridazin-3-yl)-5,6-dihydro-8H-[1,2,4]triazolo[3,4-c][1,4]oxazine]
11 | 11.01 | 157 (≈ 344 µM) | – | – | Cc1onc(-c2ccc(F)cc2)c1COc1ccc(-c2nnc3n2CCS(=O)(=O)C3)cn1 [Compound 7, 3-(6-((3-(4-fluorophenyl)-5-methylisoxazol-4-yl)methoxy)pyridin-3-yl)-5,6-dihydro-8H-[1,2,4]triazolo[3,4-c][1,4]thiazine 7,7-dioxide]

Reference: US20250215016A1, “ISOXAZOLE-HETEROCYCLIC DERIVATIVE, PHARMACEUTICAL COMPOSITION AND USE” (SHANGHAI SIMR BIOTECHNOLOGY CO., LTD, priority 2022, published 2025)
